For orientation: IC50 means the concentration that inhibits the measured activity by half.

Among the data in US20260109708A1, “COMPOUNDS AND COMPOSITIONS USEFUL AS DEGRADERS OF MK2 KINASE” (Celgene Corporation, priority 2023, published 2026) are IC50 values, retold here.

A value given as a limit tells only on which side of the number the result lay.

T1 sequence (P49137 whole entry): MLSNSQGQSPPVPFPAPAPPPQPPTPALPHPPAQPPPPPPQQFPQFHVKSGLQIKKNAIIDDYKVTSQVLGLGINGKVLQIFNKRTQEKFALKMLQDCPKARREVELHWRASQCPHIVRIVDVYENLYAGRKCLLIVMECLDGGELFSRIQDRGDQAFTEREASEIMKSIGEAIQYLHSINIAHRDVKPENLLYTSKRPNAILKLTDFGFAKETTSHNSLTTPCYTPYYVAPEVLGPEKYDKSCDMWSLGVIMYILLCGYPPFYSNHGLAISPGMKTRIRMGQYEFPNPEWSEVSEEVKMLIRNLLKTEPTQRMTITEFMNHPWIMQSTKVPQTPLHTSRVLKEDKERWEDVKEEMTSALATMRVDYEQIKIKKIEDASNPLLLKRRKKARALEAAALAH

This assay concerns the target T1, p38a activated, mitogen-activated protein kinase-activated protein kinase 2 (MAPKAP-K2 or MK2) enzyme (Homo sapiens, UniProt P49137).
T1 construct: purchased Invitrogen PV3317
Kind of assay: MK2 OMNIA biochemical assay (AssayQuant continuous-read kinase assay). Conditions: [MK-2]=0.05 nM, [ATP]=100 μM, [AQT0425]=10 μM. An excerpt:
Example 56.2. Mitogen-Activated Protein Kinase-Activated Protein Kinase 2 AssayQuant Technologies® Assay for Compound Potency Assessment (MK2 OMNIA Biochemical Assay)
The protocol below describes a continuous-read kinase assay optimized to measure potency of compounds against p38a activated, mitogen-activated protein kinase-activated protein kinase 2 (MAPKAP-K2 or MK2) enzyme.
A 1.25× stock solution of MK2 (PV3317, from Invitrogen) and a 5× stock solution of ATP and Sox conjugated peptide substrate, AQT0425 (CSKS-AQT0425B, from AssayQuant Technologies), were prepared in 1× kinase reaction buffer consisting of 50 mM HEPES, pH 7.5, 0.01% Brij-35, 0.55 mM EGTA, 10 mM MgCl2 and 1 mM DTT.
10 μL of the ATP and substrate solution mix was added to a Coming (3574) 384-well, white, non-binding surface microtiter plate containing 0.5 μL of serially diluted test compounds prepared in DMSO. The reactions were started with the addition of 40 μL of the enzyme solution and monitored every 71 seconds for 240 min at kex 360/λem 485 in a Synergy H4 plate reader from BioTek at room temperature.
The initial linear portions of the net progress curves were fit according to a linear equation to yield the slope and percentage of inhibition (% inhibition) at each compound concentration. The net progress curves obtained during the entirety of reactions were also fit according to an ascending single-exponential equation (Eq. 1) to yield Vobs values at each compound concentration. Plots of % Inhibition versus degrader concentrations were fit according to a dose-response equation (Eq. 2) to generate IC50 and Hill slope values while plots of Vobs versus degrader concentration were fit according to Equation 3 (Eq. 3) to generate apparent Kinact values using the GraphPad PRISM software.
where F is the fluorescence intensity from the plate reader, V0 is a constant reflecting the relationship between the instrument readout and product concentration, t is time, e is Euler's number, and Vobs is the observed inactivation rate constant.
where % Inhibition is percentage of inhibition, IC50 is half maximal inhibitory concentration, [I] is the degraders concentration, and n is the Hill slope.
where kobs is the observed inactivation rate constant, Kinact is the apparent inactivation rate constant, K1 is the apparent inhibition constant, and [I] is the degrader concentration.
As for `C[C@@H]1COc2c(sc3ccc4nc(-c5ccc(C6CCN(CCN7CCN(c8ccc(C9CCC(=O)NC9=O)cc8)CC7)CC6)cc5)ccc4c23)C(=O)N1` (stereo partly drawn) [Ex 32, 3-(4-(4-(2-(4-(4-((R)-10-Methyl-8-oxo-8,9,10,11-tetrahydro-[1,4]oxazepino[7′,6′:4,5]thieno[3,2-f]quinolin-3-yl)phenyl)piperidin-1-yl)ethyl)piperazin-1-yl)phenyl)piperidine-2,6-dione], the 50% inhibitory concentration (IC50) is 151 to 500 nM.
As for `C[C@@H]1COc2c(sc3ccc4nc(-c5ccc(C6CN(CCN7CCN(c8ccc(C9CCC(=O)NC9=O)cc8)CC7)C6)cc5)ccc4c23)C(=O)N1` (stereo partly drawn) [Ex 33, 3-(4-(4-(2-(3-(4-((R)-10-Methyl-8-oxo-8,9,10,11-tetrahydro-[1,4]oxazepino[7′,6′:4,5]thieno[3,2-f]quinolin-3-yl)phenyl)azetidin-1-yl)ethyl)piperazin-1-yl)phenyl)piperidine-2,6-dione], the figure is less than 150 nM; as for `C[C@@H]1CNc2c(sc3ccc4nc(-c5ccc(C6CCN(CCN7CCN(c8ccc(C9CCC(=O)NC9=O)cc8)CC7)CC6)nc5)ccc4c23)C(=O)N1` (stereo partly drawn) [Ex 34, 3-(4-(4-(2-(4-(5-((R)-10-Methyl-8-oxo-9,10,11,12-tetrahydro-8H-[1,4]diazepino[5′,6′:4,5]thieno[3,2-f]quinolin-3-yl)pyridin-2-yl)piperidin-1-yl)ethyl)piperazin-1-yl)phenyl)piperidine-2,6-dione], 151 to 500 nM; as for `C[C@@H]1CNc2c(sc3ccc4nc(-c5ccc(C6CCN(CCN7CCN(c8ccc(C9CCC(=O)NC9=O)cc8)CC7)CC6)cn5)ccc4c23)C(=O)N1` (stereo partly drawn) [Ex 35, 3-(4-(4-(2-(4-(6-((R)-10-Methyl-8-oxo-9,10,11,12-tetrahydro-8H-[1,4]diazepino[5′,6′:4,5]thieno[3,2-f]quinolin-3-yl)pyridin-3-yl)piperidin-1-yl)ethyl)piperazin-1-yl)phenyl)piperidine-2,6-dione], less than 150 nM.
The figure for `C[C@@H]1CNc2c(sc3ccc4nc(-c5cnc(C6CCN(CCN7CCN(c8ccc(C9CCC(=O)NC9=O)cc8)CC7)CC6)nc5)ccc4c23)C(=O)N1` (stereo partly drawn) [Ex 36, 3-(4-(4-(2-(4-(5-((R)-10-Methyl-8-oxo-9,10,11,12-tetrahydro-8H-[1,4]diazepino[5′,6′:4,5]thieno[3,2-f]quinolin-3-yl)pyrimidin-2-yl)piperidin-1-yl)ethyl)piperazin-1-yl)phenyl)piperidine-2,6-dione] is 151 to 500 nM.
As for `C[C@@H]1CNc2c(sc3ccc4nc(-c5ccc(C6CCN(CCN7CCN(c8ccc(C9CCC(=O)NC9=O)cc8)CC7)CC6)nn5)ccc4c23)C(=O)N1` (stereo partly drawn) [Ex 37, 3-(4-(4-(2-(4-(6-((R)-10-Methyl-8-oxo-9,10,11,12-tetrahydro-8H-[1,4]diazepino[5′,6′:4,5]thieno[3,2-f]quinolin-3-yl)pyridazin-3-yl)piperidin-1-yl)ethyl)piperazin-1-yl)phenyl)piperidine-2,6-dione], the figure is less than 150 nM; as for `C[C@@H]1CNc2c(sc3ccc4nc(-c5ccc(N6CCC(CN7CCN(c8ccc(C9CCC(=O)NC9=O)cc8)CC7)CC6)cc5)ccc4c23)C(=O)N1` (stereo partly drawn) [Ex 38, 3-(4-(4-((1-(4-((R)-10-Methyl-8-oxo-9,10,11,12-tetrahydro-8H-[1,4]diazepino[5′,6′:4,5]thieno[3,2-f]quinolin-3-yl)phenyl)piperidin-4-yl)methyl)piperazin-1-yl)phenyl)piperidine-2,6-dione], 151 to 500 nM.
As to `C[C@@H]1CNc2c(sc3ccc4nc(-c5ccc(N6CCC(CCN7CCN(c8ccc(C9CCC(=O)NC9=O)cc8)CC7)CC6)cc5)ccc4c23)C(=O)N1` (stereo partly drawn) [Ex 39, 3-(4-(4-(2-(1-(4-((R)-10-methyl-8-oxo-9,10,11,12-tetrahydro-8H-[1,4]diazepino[5′,6′:4,5]thieno[3,2-f]quinolin-3-yl)phenyl)piperidin-4-yl)ethyl)piperazin-1-yl)phenyl)piperidine-2,6-dione], the concentration for half-maximal inhibition (IC50) was 151 to 500 nM.
`C[C@@H]1CNc2c(sc3ccc4nc(-c5ccc(N6CCC(CCN7CCC(c8ccc(C9CCC(=O)NC9=O)cc8)CC7)CC6)cc5)ccc4c23)C(=O)N1` (stereo partly drawn) [Ex 40, 3-(4-(1-(2-(1-(4-((R)-10-Methyl-8-oxo-9,10,11,12-tetrahydro-8H-[1,4]diazepino[5′,6′:4,5]thieno[3,2-f]quinolin-3-yl)phenyl)piperidin-4-yl)ethyl)piperidin-4-yl)phenyl)piperidine-2,6-dione]: the IC50 fell in the range of 151 to 500 nM.
On to `C[C@@H]1CNc2c(sc3ccc4nc(-c5ccc(N6CC(CN7CCN(c8ccc(C9CCC(=O)NC9=O)cc8)CC7)C6)cc5)ccc4c23)C(=O)N1` (stereo partly drawn) [Ex 41, 3-(4-(4-((1-(4-((R)-10-Methyl-8-oxo-9,10,11,12-tetrahydro-8H-[1,4]diazepino[5′,6′:4,5]thieno[3,2-f]quinolin-3-yl)phenyl)azetidin-3-yl)methyl)piperazin-1-yl)phenyl)piperidine-2,6-dione], for which the IC50 was less than 150 nM.
As for `C[C@@H]1CNc2c(sc3ccc4nc(-c5ccc(N6CC(CCN7CCN(c8ccc(C9CCC(=O)NC9=O)cc8)CC7)C6)cc5)ccc4c23)C(=O)N1` (stereo partly drawn) [Ex 42, 3-(4-(4-(2-(1-(4-((R)-10-Methyl-8-oxo-9,10,11,12-tetrahydro-8H-[1,4]diazepino[5′,6′:4,5]thieno[3,2-f]quinolin-3-yl)phenyl)azetidin-3-yl)ethyl)piperazin-1-yl)phenyl)piperidine-2,6-dione], the figure is less than 150 nM.
As for `C[C@@H]1CNc2c(sc3ccc4nc(-c5cnn(C6CCN(CCN7CCN(c8ccc(C9CCC(=O)NC9=O)cc8)CC7)CC6)c5)ccc4c23)C(=O)N1` (stereo partly drawn) [Ex 43, 3-(4-(4-(2-(4-(4-((R)-10-Methyl-8-oxo-9,10,11,12-tetrahydro-8H-[1,4]diazepino[5′,6′:4,5]thieno[3,2-f]quinolin-3-yl)-1H-pyrazol-1-yl)piperidin-1-yl)ethyl)piperazin-1-yl)phenyl)piperidine-2,6-dione], the figure is less than 150 nM; as for `C[C@@H]1CNc2c(sc3ccc4nc(-c5cnn(C6CCN(CCN7CCN(c8ccc9c(C%10CCC(=O)NC%10=O)nn(C)c9c8)CC7)CC6)c5)ccc4c23)C(=O)N1` (stereo partly drawn) [Ex 44, 3-(1-Methyl-6-(4-(2-(4-(4-((R)-10-methyl-8-oxo-9,10,11,12-tetrahydro-8H-[1,4]diazepino[5′,6′:4,5]thieno[3,2-f]quinolin-3-yl)-1H-pyrazol-1-yl)piperidin-1-yl)ethyl)piperazin-1-yl)-1H-indazol-3-yl)piperidine-2,6-dione], less than 150 nM; as for `C[C@@H]1CNc2c(sc3ccc4nc(-n5cc(C6CCN(CCN7CCN(c8ccc(C9CCC(=O)NC9=O)cc8)CC7)CC6)nn5)ccc4c23)C(=O)N1` (stereo partly drawn) [Ex 45, 3-(4-(4-(2-(4-(1-((R)-10-Methyl-8-oxo-9,10,11,12-tetrahydro-8H-[1,4]diazepino[5′,6′:4,5]thieno[3,2-f]quinolin-3-yl)-1H-1,2,3-triazol-4-yl)piperidin-1-yl)ethyl)piperazin-1-yl)phenyl)piperidine-2,6-dione], less than 150 nM.
Consider `C[C@@H]1CNc2c(sc3ccc4nc(-n5cc(C6CCN(CCN7CCN(c8ccc9c(C%10CCC(=O)NC%10=O)nn(C)c9c8)CC7)CC6)nn5)ccc4c23)C(=O)N1` (stereo partly drawn) [Ex 46, 3-(1-Methyl-6-(4-(2-(4-(1-((R)-10-methyl-8-oxo-9,10,11,12-tetrahydro-8H-[1,4]diazepino[5′,6′:4,5]thieno[3,2-f]quinolin-3-yl)-1H-1,2,3-triazol-4-yl)piperidin-1-yl)ethyl)piperazin-1-yl)-1H-indazol-3-yl)piperidine-2,6-dione], for which the IC50 is less than 150 nM.
As for `C[C@@H]1CNc2c(sc3ccc4nc(-n5cc(C6CCN(CCN7CCC(c8ccc(C9CCC(=O)NC9=O)cc8)CC7)CC6)nn5)ccc4c23)C(=O)N1` (stereo partly drawn) [Ex 47, 3-(4-(1-(2-(4-(1-((R)-10-Methyl-8-oxo-9,10,11,12-tetrahydro-8H-[1,4]diazepino[5′,6′:4,5]thieno[3,2-f]quinolin-3-yl)-1H-1,2,3-triazol-4-yl)piperidin-1-yl)ethyl)piperidin-4-yl)phenyl)piperidine-2,6-dione], the figure is less than 150 nM; as for `C[C@@H]1CNc2c(sc3ccc4nc(-c5cn(C6CCN(CCN7CCC(c8ccc(C9CCC(=O)NC9=O)cc8)CC7)CC6)nn5)ccc4c23)C(=O)N1` (stereo partly drawn) [Ex 48, 3-(4-(1-(2-(4-(4-((R)-10-Methyl-8-oxo-9,10,11,12-tetrahydro-8H-[1,4]diazepino[5′,6′:4,5]thieno[3,2-f]quinolin-3-yl)-1H-1,2,3-triazol-1-yl)piperidin-1-yl)ethyl)piperidin-4-yl)phenyl)piperidine-2,6-dione], less than 150 nM.
